The values below are quoted from earlier work in US8907090B2, “Processes for preparing different forms of (S)-(+)-Clopidogrel bisulfate” (Cadila Healthcare Limited, priority 2003, dated 2014).

The test system of data set [1] is platelet aggregation. The settings on record: comparison of enantiomers.
For data set [2] the following is noted: comparison of enantiomers.

`COC(=O)C(c1ccccc1Cl)N1CCc2sccc2C1` (single isomer, unassigned) [levorotatory enantiomer]: in data set [1], the antiaggregant platelet activity entry is reported as “less active”. Also, the tolerance result in data set [2] is “less tolerated”.

In the case of `COC(=O)[C@H](c1ccccc1Cl)N1CCc2sccc2C1` (single isomer, unassigned) [dextrorotatory enantiomer], the antiaggregant platelet activity result in data set [1] is “excellent antiaggregant platelet activity”.
